Assay results taken from doi:10.1101/2023.07.01.547314v1 (biorxiv, 2023).
Residue numbers refer to the chain shown, from its start.

Columns and labels:
A2BR [1] = target: T1, A2BR (Homo sapiens, UniProt P29275); experiment: GloSensor cAMP assay, HEK293; format: cell-based
T1 sequence (P29275 1-332): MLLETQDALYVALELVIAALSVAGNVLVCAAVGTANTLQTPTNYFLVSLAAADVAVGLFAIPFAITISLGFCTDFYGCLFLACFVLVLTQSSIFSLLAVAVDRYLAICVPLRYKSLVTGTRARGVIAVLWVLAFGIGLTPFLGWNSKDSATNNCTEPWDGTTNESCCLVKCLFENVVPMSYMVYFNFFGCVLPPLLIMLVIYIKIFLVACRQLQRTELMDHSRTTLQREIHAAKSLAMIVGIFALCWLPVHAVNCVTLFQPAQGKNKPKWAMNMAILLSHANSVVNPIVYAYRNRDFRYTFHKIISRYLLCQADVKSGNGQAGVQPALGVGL

A2BR [2] = target: T2, A2BR (Homo sapiens, UniProt P29275, N273Y); experiment: GloSensor cAMP assay, HEK293; format: cell-based
T2 sequence (P29275 1-332 N273Y): T1 sequence (P29275 1-332) with N273Y

A2BR [3] = target: T3, A2BR (Homo sapiens, UniProt P29275, Y10F); experiment: GloSensor cAMP assay, HEK293; format: cell-based
T3 sequence (P29275 1-332 Y10F): T1 sequence (P29275 1-332) with Y10F

A2AR [4] = target: A2AR (Homo sapiens, UniProt P29274, Y9F); experiment: cell-based
A2AR [5] = target: A2AR (Homo sapiens, UniProt P29274, Y271N); experiment: cell-based
A2AR [6] = target: A2AR (Homo sapiens, UniProt P29274); experiment: cell-based
Chain of A2AR (Homo sapiens, UniProt P29274) (P29274 whole entry): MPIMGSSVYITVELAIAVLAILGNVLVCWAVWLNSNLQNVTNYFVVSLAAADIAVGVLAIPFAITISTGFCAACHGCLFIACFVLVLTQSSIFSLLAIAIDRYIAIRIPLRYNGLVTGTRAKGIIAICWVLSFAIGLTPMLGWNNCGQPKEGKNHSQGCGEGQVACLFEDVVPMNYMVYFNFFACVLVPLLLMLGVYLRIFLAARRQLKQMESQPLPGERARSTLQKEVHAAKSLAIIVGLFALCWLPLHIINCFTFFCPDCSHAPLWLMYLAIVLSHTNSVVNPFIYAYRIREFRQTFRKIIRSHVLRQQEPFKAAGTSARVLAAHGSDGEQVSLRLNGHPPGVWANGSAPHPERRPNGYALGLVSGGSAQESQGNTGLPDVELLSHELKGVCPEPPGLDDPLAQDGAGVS

Chain of A2AR (Homo sapiens, UniProt P29274, Y271N) (P29274 whole entry Y271N): as the sequence (P29274 whole entry) above, with Y271N counted along it
Chain of A2AR (Homo sapiens, UniProt P29274, Y9F) (P29274 whole entry Y9F): as the sequence (P29274 whole entry) above, with Y9F counted along it

Row | Structure (SMILES) | IC50 (A2BR [1]) [nM] | IC50 (A2BR [2]) [nM] | IC50 (A2BR [3]) [nM] | IC50 (A2AR [4]) [nM] | IC50 (A2AR [5]) [nM] | IC50 (A2AR [6]) [nM]
1 | Cc1c(C#N)cccc1-c1cc(-c2ccn(Cc3cccc(C(C)(C)O)n3)c(=O)c2)nc(N)n1 [2-118, 3-[2-amino-6-[1-[[6-(2-hydroxypropan-2-yl)pyridin-2-yl]methyl]-2-oxo-1,2-dihydropyridin-4-yl]pyrimidin-4-yl]-2-methylbenzonitrile] | 2630 | 1210 | 441 | – | – | –
2 | Cc1c(C#N)cccc1-c1cc(-c2cn(Cc3cccc(C(C)(C)O)n3)nn2)nc(N)n1 [AB928, 3-[2-amino-6-[1-[[6-(2-hydroxypropan-2-yl)pyridin-2-yl]methyl]triazol-4-yl]pyrimidin-4-yl]-2-methylbenzonitrile] | 8.18 | 7.46 | 1.29 | 1.78 | 65.6 | 3.21
